Results reported in ChEMBL document CHEMBL1124020, “Synthesis and antiherpetic activity of (+/-)-9-[[(Z)-2-(hydroxymethyl)cyclopropyl]methyl]guanine and related compounds” (1988).
In brackets after ≈: the same amount, converted by molar mass. Activity calls are given as the source filed them. No cut-off for these calls is given here.

Columns and labels:
[1] = (§1) Inhibition of DNA polymerase; assay type: functional; conditions: concentration not given here
[2] = target: T1, DNA polymerase catalytic subunit (Herpes simplex virus (type 1 / strain 17)) (UniProt P04293); assay: Percentage of diphosphates (DP) in the second step of staggered assay mixture from step 1 was incubated with GMP kinase and crude extract of HSV-1 infected HeLa cells over night; assay type: functional, cell-based
T1 sequence (whole entry): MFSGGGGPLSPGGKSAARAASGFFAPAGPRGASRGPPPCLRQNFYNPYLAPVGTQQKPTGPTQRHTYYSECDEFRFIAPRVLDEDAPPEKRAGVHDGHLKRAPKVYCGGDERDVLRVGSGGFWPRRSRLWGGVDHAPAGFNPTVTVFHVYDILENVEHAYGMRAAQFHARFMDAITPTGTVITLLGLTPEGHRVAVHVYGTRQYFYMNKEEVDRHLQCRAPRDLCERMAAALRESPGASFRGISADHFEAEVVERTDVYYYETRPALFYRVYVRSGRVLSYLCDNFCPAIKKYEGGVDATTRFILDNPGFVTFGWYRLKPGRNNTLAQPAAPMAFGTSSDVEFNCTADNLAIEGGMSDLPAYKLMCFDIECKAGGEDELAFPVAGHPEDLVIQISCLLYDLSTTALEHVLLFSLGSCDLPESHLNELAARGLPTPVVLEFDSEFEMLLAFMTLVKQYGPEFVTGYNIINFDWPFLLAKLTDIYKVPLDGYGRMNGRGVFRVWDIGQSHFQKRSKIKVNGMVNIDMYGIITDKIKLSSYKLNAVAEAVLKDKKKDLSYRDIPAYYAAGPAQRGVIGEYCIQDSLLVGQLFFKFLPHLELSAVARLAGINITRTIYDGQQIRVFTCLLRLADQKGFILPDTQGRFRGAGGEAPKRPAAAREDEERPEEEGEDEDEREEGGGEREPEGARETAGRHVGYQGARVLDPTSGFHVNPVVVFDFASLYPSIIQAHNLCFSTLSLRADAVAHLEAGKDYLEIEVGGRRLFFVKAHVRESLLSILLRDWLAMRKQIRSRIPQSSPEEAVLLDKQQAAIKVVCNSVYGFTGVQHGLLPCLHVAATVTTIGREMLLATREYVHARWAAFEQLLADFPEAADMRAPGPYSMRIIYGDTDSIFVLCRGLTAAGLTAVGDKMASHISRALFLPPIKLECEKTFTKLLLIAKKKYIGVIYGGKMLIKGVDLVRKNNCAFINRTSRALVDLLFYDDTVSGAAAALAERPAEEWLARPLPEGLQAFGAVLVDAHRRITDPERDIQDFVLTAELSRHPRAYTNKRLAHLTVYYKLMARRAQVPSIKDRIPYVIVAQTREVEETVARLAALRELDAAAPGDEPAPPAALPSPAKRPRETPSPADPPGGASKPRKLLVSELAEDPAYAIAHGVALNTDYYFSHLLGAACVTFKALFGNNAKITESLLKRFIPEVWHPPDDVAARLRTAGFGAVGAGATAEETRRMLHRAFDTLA

[3] = target: T1, DNA polymerase catalytic subunit (Herpes simplex virus (type 1 / strain 17)); assay: Percentage of monophosphates (MP) in the second step of staggered assay mixture from step 1 was incubated with GMP kinase and crude extract of HSV-1 infected HeLa cells over night; assay type: functional, cell-based
[4] = target: T1, DNA polymerase catalytic subunit (Herpes simplex virus (type 1 / strain 17)); assay: (§2) Percentage of triphosphates (TP) in the second step of staggered assay mixture from step 1 was incubated with GMP kinase and crude extract of HSV-1 infected HeLa cells over night; assay type: functional, cell-based; conditions: Homo sapiens
Oryctolagus cuniculus [5] = species: Oryctolagus cuniculus; assay: (§3) Antiviral activity against HSV-1 cell line (concentration required to prevent viral cytopathic effect in half of primary rabbit kidney cell cultures); assay type: functional; conditions: read-out: ED50 (the source's name)
Oryctolagus cuniculus [6] = species: Oryctolagus cuniculus; assay: (§4) Antiviral activity against HSV-2 cell line (concentration required to prevent viral cytopathic effect in half of primary rabbit kidney cell cultures); assay type: functional; conditions: read-out: ED50 (the source's name)
[7] = target: T1, DNA polymerase catalytic subunit (Herpes simplex virus (type 1 / strain 17)); assay: as §1; set-up: concentration or dose not given beside the values; conditions: concentration not given here
Oryctolagus cuniculus [8] = species: Oryctolagus cuniculus; assay: Antiviral activity against HSV-2 cell line (concentration required to prevent viral cytopathic effect in half of primary rabbit kidney cell cultures); Not Active at 100 ug/mL; assay type: functional, organism-based
Oryctolagus cuniculus [9] = species: Oryctolagus cuniculus; assay: Antiviral activity against HSV-1 cell line (concentration required to prevent viral cytopathic effect in half of primary rabbit kidney cell cultures); Not Active at 100 ug/mL; assay type: functional, organism-based
[10] = as §1; set-up: concentration or dose not given beside the values; conditions: concentration not given here
HeLa = assay: as §2; assay type: functional, Homo sapiens
[11] = as §3; conditions: Oryctolagus cuniculus, read-out: ED50
[12] = as §4; conditions: Oryctolagus cuniculus, HSV-2, read-out: ED50
[13] = test system: Thymidine kinase (Human herpesvirus 1); assay: Percentage of monophosphates (MP) formed in the first step of staggered assay compound was incubated with HSV-1 thymidine kinase for 4 hr

| Structure (SMILES) | inhibition [1] [%] | DP [2] [%] | MP [3] [%] | TP [4] [%] | EC50 (Oryctolagus cuniculus [5]) [µg/mL] | EC50 (Oryctolagus cuniculus [6]) [µg/mL] | inhibition [7] [%] | ED50 (Oryctolagus cuniculus [8]) | ED50 (Oryctolagus cuniculus [9]) | inhibition [10] [%] | TP (HeLa) [%] | EC50 [11] [µg/mL] | EC50 [12] [µg/mL] | NA (Oryctolagus cuniculus [8]) | NA (Oryctolagus cuniculus [9]) | MP [13] [%] |
| --- | --- | --- | --- | --- | --- | --- | --- | --- | --- | --- | --- | --- | --- | --- | --- | --- |
| Nc1ncnc2c1ncn2CC1CC1(CO)CO (stereo unspecified) | 12 | 0 | 0 | 0 | 50 (≈ 201 µM) | 50 (≈ 201 µM) | 0 | – | – | – | – | – | – | – | – | – |
| Nc1nc(O)c2ccn(C[C@H]3C[C@H]3CO)c2n1 | – | 0 | 9 | 0 | – | – | 14 | inactive | inactive | 0 | – | – | – | – | – | – |
| Nc1nc(O)c2ncn(CCC(CO)CO)c2n1 [PENCICLOVIR] | – | 13 | 3 | 75 | 6 (≈ 23.7 µM) | 12 (≈ 47.4 µM) | 0 | – | – | 8 | – | – | – | – | – | – |
| Nc1nc(O)c(N=O)c(NC[C@H]2C[C@H]2CO)n1 | – | 0 | 0 | 21 | – | – | 8 | inactive | inactive | 0 | – | – | – | – | – | – |
| Nc1nc(O)c2nnn(C[C@H]3C[C@H]3CO)c2n1 | – | 41 | 2 | 55 | – | – | 0 | inactive | inactive | 1 | – | – | – | – | – | – |
| Nc1nc(O)c2ncn(CC=C(CO)CO)c2n1 | – | 9 | 0 | – | – | – | 0 | inactive | inactive | 0 | 25 | – | – | – | – | – |
| Nc1nc(O)c2ncn(C/C=C/CO)c2n1 | – | 0 | 9 | 0 | – | – | 0 | inactive | inactive | 0 | – | – | – | – | – | – |
| Nc1nc(O)c2ncn(C[C@H]3C[C@H]3CO)c2n1 | – | 0 | 0 | 76 | 6 (≈ 25.5 µM) | 12 (≈ 51 µM) | 3 | – | – | 14 | – | – | – | – | – | – |
| Nc1nc2c(ncn2COCCO)c(=O)[nH]1 [ACYCLOVIR] | – | 9 | 3 | 60 | – | – | 79 | – | – | 40 | – | 3 (≈ 13.3 µM) | 3 (≈ 13.3 µM) | – | – | – |
| Nc1ncnc2c1ncn2C[C@H]1C[C@@H]1CO | – | 0 | 0 | 0 | 50 (≈ 228 µM) | 50 (≈ 228 µM) | 0 | – | – | 0 | – | – | – | – | – | – |
| Nc1nc(O)c2ncn(C/C=C\CO)c2n1 | – | 16 | 12 | 64 | 12 (≈ 54.2 µM) | 50 (≈ 226 µM) | 12 | – | – | 8 | – | – | – | – | – | – |
| Cc1cn(C[C@H]2C[C@H]2CO)c(=O)[nH]c1=O | – | 0 | 23 | 0 | – | – | 22 | inactive | inactive | 0 | – | – | – | – | – | – |
| Nc1ncnc2c1ncn2C/C=C\CO | – | 0 | 0 | 0 | – | – | 0 | – | – | 3 | – | – | – | inactive | inactive | 0 |
| Nc1nc(O)c2ncn(C[C@H]3C[C@@H]3CO)c2n1 | – | 48 | 9 | 2 | – | – | 26 | inactive | inactive | 30 | – | – | – | – | – | – |
| Nc1nc2c(ncn2CCCCO)c(=O)[nH]1 | – | 10 | 0 | 17 | 3 (≈ 13.4 µM) | 12 (≈ 53.8 µM) | 20 | – | – | 20 | – | – | – | – | – | – |
| Nc1nc2c(ncn2COC(CO)CO)c(=O)[nH]1 [GANCICLOVIR] | – | 10 | 3 | 84 | 3 (≈ 11.8 µM) | 3 (≈ 11.8 µM) | 60 | – | – | 22 | – | – | – | – | – | – |
| Nc1ncnc2c1ncn2C[C@H]1C[C@H]1CO | – | 0 | 0 | 0 | – | – | 5 | inactive | inactive | 0 | – | – | – | – | – | – |
| Nc1nc(O)c(N=O)c(NC[C@H]2C[C@@H]2CO)n1 | – | 0 | 9 | 0 | – | – | 9 | inactive | inactive | 5 | – | – | – | – | – | – |
| Nc1nc(O)c2ncn(CC#CCO)c2n1 | – | 0 | 0 | 0 | – | – | 0 | inactive | inactive | 5 | – | – | – | – | – | – |
| Nc1nc(O)c2ncn(C[C@H]3CC3(CO)CO)c2n1 | – | 0 | 0 | 0 | 50 (≈ 188 µM) | – | 0 | inactive | – | 0 | – | – | – | – | – | – |
